Test results reported in patent US20100184679A1, “USE OF A COMBINATION OF CART PEPTIDES AS A THERAPEUTIC AGENT” (priority 2007, published 2010).
Where no end group is shown, it is not given here.

Experiments:
HIV-1IIIB = experiment: HIV-1 antiviral assay in CEM-SS cells (MTS readout)
[1] = tested on: hepatitis B virus (HBV) ayw strain; experiment: HBV assay in HepG2-2.2.15 cells (TaqMan PCR of secreted HBV DNA); assay type: cell-based; conditions: 10 micrograms per ml, six days, HBV DNA in supernatant
Human A549 cells = experiment: Apoptosis induction assay (Annexin-5); assay type: cell-based; conditions: 10 micrograms per ml, 24 hours
Experimental: Human A549 cells (carcinomic human alveolar basal epithelial cells) were utilized in the experiments employing the Annexin-5 apoptosis assay. […] Test peptides—10 micrograms per ml—were exposed for 24 hours to the A549 cells before they were analyzed for signs of apoptosis.

[2] = tested on: Primary Human endothelial cells (HUVEC); experiment: Endothelial cell migration assay; assay type: cell-based; conditions: 10 micrograms per ml, 22 hours
Experimental: Thereafter, designated concentration of testing peptides—10 micrograms per ml—was added in duplicate wells.

HUVEC = experiment: Endothelial tube formation assay; assay type: cell-based, human; conditions: 10 micrograms per ml, 20 hours
Text: Positive control was vehicle only.

HCMV strain AD169 = experiment: HCMV plaque formation assay in MRC-5 cells; assay type: cell-based; conditions: for inhibition of HCMV plaque formation as compared to the virus control experiment: 10 micrograms per ml, 7-10 days
Text: Ganciclovir was used as positive control.

murine spleen cells = experiment: Th1/Th2 cytokine profiling assay (Ovalbumin-restimulated spleen cells, CBA Kit); assay type: cell-based, Balb/c mice; conditions: 10 micrograms per ml, Ovalbumin restimulation, 72 hours
Text: The Balb/c mice (originated in 1923, it is a popular strain and is used in many different research disciplines. Also classified as an inbred from the production of 20 or more successive brother-sister matings, the Balb/c mouse is albino and small in size) were immunized on Days 1, 15, and 29 with Ovalbumin (Ovalbumin is the main protein found in egg white, commonly used to stimulate an immunological reaction in test animals) in PBS (5 micrograms/injection). On day 50, spleens of the mice were harvested (3 weeks after last boost with Ovalbumin), Cells were cultured (2×10^5/well in triplicate) and incubated with culture medium or test peptides—10 micrograms per ml—for 30 min. Thereafter, additional Ovalbumin was added to the cells at 10 micrograms/ml for in vitro restimulation of the cells. 72 hours later, cell supernatants were harvested and assayed using the Becton Dickinson Mouse Th1/Th2 Cytokine CBA Kit. This kit can be used to measure Interleukin-2 (IL-2), Interleukin-4 (IL-4), Interleukin-5 (IL-5), Interferon-γ (IFN-γ), and Tumor Necrosis Factor-α (TNF-α) protein levels in a single sample. The kit performance has been optimized for analysis of physiologically relevant concentrations (pg/ml levels) of specific cytokine proteins in tissue culture supernatants and serum samples.

## CC(C)(C)NC(=O)[C@@H]1CN(Cc2cccnc2)CCN1C[C@@H](O)C[C@@H](Cc1ccccc1)C(=O)N[C@H]1c2ccccc2C[C@H]1O [indinavir]
HIV-1IIIB
  antiviral activity of positive control compounds (HIV-1): expected levels of antiviral activity

## Tyr-Gly-Gln-Val-Pro-Met-Cys-Asp-Ala-Gly-Glu-Gln-Cys-Ala-Val-OH (YGQVPMCDAGEQCAV-OH; cysteine pairing not given here) [Peptide 1]
[1]
  inhibition of HBV replication as compared to the virus control infection: 33.6%
Human A549 cells
  induction of apoptosis on human lung cells: did not show any significant induction
[2]
  inhibition of the migration of human endothelial cells: 15%
HUVEC
  inhibition of the tube formation of human endothelial cells: 16%
HCMV strain AD169
  inhibition of HCMV plaque formation as compared to the virus control experiment: 0.7%
Murine spleen cells
  change of the production of IFN-gamma: did not significantly change
  change of the production of IL-5: did not significantly change
  production of IL-2, induced by: 147.7%
  production of IL-4, induced by: 545.4%
  production of TNF-alpha, induced by: 95.0%

## Cc1cn([C@H]2C[C@H](N=[N+]=[N-])[C@@H](CO)O2)c(=O)[nH]c1=O [AZT]
HIV-1IIIB
  antiviral activity of positive control compounds (HIV-1): expected levels of antiviral activity

## Nc1nc(O)c2ncn(COC(CO)CO)c2n1 [Ganciclovir, reference compound]
HCMV strain AD169; positive control
  antiviral activity of positive control compound (HCMV): expected levels of antiviral activity

## Val-Pro-Ile-Tyr-Glu-Lys-Lys-Tyr-Gly-Gln-Val-Pro-Met-Cys-Asp-Ala-Gly-Glu-Gln-Cys-Ala-Val-Arg-Lys-Gly-Ala-Arg-Ile-Gly-Lys-Leu-Cys-Asp-Cys-Pro-Arg-Gly-Thr-Ser-Cys-Asn-Ser-Phe-Leu-Leu-Lys-Cys-Leu-OH (VPIYEKKYGQVPMCDAGEQCAVRKGARIGKLCDCPRGTSCNSFLLKCL-OH; cysteine pairing not given here) [Peptide 2]
[1]
  inhibition of HBV replication as compared to the virus control infection: 45.0%
Human A549 cells
  induction of apoptosis on human lung cells: 17.8%
[2]
  inhibition of the migration of human endothelial cells: 22%
HUVEC
  inhibition of the tube formation of human endothelial cells: 12%
HCMV strain AD169
  inhibition of HCMV plaque formation as compared to the virus control experiment: 6.6%
Murine spleen cells
  change of the production of IFN-gamma: did not significantly change
  change of the production of IL-5: did not significantly change
  production of IL-2, decreased by: 61.5%
  production of IL-4, decreased by: 100%
  production of TNF-alpha, induced by: 27.5%
